Measured values taken from article PMC9706565, “Covalently Conjugated NOD2/TLR7 Agonists Are Potent and Versatile Immune Potentiators” (Journal of Medicinal Chemistry, 2022).
Converted amounts (≈) assume the structure as drawn. Like-named read-outs stand apart in the source and are kept apart here.

Experiments:
[1] = test system: MEC1 cells; assay: PBMC cytotoxicity against MEC1 cancer cells; type: cell-based, human; conditions: PBMCs stimulated 18 h, 1 μM; 4 h coincubation, effector:target 40:1
Procedure: (§1) K562 cells are a chronic myelogenous leukemia cell line (Cat. code: CCL-243; ATCC, Manassas, VA)[60] and MEC1 cells are a B-chronic lymphocytic leukemia cell line (Cat. code: ACC 497; DSMZ GmbH, Braunschweig, Germany).[61]
(§2) The PBMC cytotoxicity assays using K562 and MEC1 cells were performed as described previously, with some modifications.[64] PBMCs were seeded (4 × 10^5 cells/well) in duplicate in 96-well U-bottom plates and treated with the compounds (1 nM–1 μM) or vehicle (0.1% DMSO) for 18 h. […] Cells that were positive for both CFSE and Sytox blue were defined as dead K562 and MEC1 cells. The gating strategy is described in Figure S4. PBMCs alone and CFSE-labeled cancer cells alone were also treated with the compounds at the same concentrations and stained with Sytox blue to exclude any direct cytotoxicity of the compounds toward the PBMCs and cancer cells. Statistical significance was determined with one-way ANOVA with subsequent Bonferroni’s multiple comparisons test.

[2] = target: T1, TLR7 (Homo sapiens, UniProt Q9NYK1); assay: NF-κB transcriptional activity (SEAP reporter) in HEK-Blue TLR7 cells; type: cell-based; conditions: for EC50: HEK-Blue TLR7 cells, 18 h, eight concentrations 1 nM to 10 μM, NA, not active; for fold improved TLR7 activity over 1: ratio of EC50 values in HEK-Blue TLR7 cells
T1 construct: host or cells: HEK-Blue TLR7 (HEK293-derived)
T1 sequence (Q9NYK1 27-1049): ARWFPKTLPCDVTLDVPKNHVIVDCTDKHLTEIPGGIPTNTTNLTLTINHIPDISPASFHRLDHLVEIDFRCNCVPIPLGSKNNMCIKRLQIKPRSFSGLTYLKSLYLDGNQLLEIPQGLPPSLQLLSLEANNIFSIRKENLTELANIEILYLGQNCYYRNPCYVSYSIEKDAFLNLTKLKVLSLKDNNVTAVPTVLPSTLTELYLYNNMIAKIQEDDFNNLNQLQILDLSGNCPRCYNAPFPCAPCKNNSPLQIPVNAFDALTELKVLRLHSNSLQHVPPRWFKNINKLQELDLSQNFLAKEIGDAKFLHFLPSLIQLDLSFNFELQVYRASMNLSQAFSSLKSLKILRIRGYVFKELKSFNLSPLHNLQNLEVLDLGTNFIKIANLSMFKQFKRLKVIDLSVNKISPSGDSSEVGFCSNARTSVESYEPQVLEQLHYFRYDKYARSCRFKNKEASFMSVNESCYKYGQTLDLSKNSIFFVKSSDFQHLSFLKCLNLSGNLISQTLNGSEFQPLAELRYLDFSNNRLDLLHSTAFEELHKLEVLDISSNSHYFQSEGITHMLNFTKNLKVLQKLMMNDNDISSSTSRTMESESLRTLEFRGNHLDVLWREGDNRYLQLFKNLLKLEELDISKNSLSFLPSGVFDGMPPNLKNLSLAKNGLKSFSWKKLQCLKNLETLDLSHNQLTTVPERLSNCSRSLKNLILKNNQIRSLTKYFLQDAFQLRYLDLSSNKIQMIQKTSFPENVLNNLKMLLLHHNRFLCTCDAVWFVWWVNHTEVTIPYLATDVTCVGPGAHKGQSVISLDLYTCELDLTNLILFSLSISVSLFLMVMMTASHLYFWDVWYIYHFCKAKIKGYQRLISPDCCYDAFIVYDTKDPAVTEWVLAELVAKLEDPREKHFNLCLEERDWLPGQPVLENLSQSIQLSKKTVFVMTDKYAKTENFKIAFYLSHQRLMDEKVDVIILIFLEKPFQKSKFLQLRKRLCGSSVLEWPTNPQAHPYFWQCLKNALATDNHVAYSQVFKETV
From the text: (§3) HEK-Blue NOD1 (Cat. code: hkb-hnod1), NOD2 (Cat. code: hkb-hnod2), and TLR7 (Cat. code: hkb-htlr7) cell lines (Invivogen, San Diego, CA) are derived from HEK293 cells by co-transfection of the hNOD1, hNOD2, or hTLR7 genes, respectively, and a nuclear factor-κB (NF-κB)-inducible secreted embryonic alkaline phosphatase (SEAP) reporter gene. Following activation of the respective receptors, the resulting NF-κB induces the production of SEAP, the levels of which can be quantified colorimetrically. […] All of the subsequent passages were cultured in medium additionally supplemented with 100 μg/mL Zeocin (Invivogen) and 30 μg/mL Blasticidin (Invivogen) for HEK-Blue NOD1 and NOD2 cells, or with 100 μg/mL Zeocin (Invivogen) and 10 μg/mL Blasticidin (Invivogen) for HEK-Blue TLR7 cells.
(§4) After 18 h of incubation (37 °C, 5% CO2), SEAP activity was determined spectrophotometrically as absorbance at 630 nm (BioTek Synergy microplate reader; Winooski, VT). EC50 values were calculated using the Prism software (version 9; GraphPad Software, CA).

[3] = target: T2, NOD2 (Homo sapiens, UniProt Q9HC29); assay: NF-κB transcriptional activity (SEAP reporter) in HEK-Blue NOD2 cells; type: cell-based; conditions: 18 h; for EC50: eight concentrations 1 nM to 10 μM, NA, not active
T2 construct: host or cells: HEK-Blue NOD2 (HEK293-derived)
From the text: as §3, §4

[4] = test system: NIH/OlaHsd mice; assay: Mouse immunization with OVA, OVA-specific serum antibodies (ELISA); type: in vivo; conditions: s.c. days 0, 21, 42; OVA 10 μg + compound 50 μg; 7 days after last dose
Procedure: NIH/OlaHsd inbred mice were raised at the Institute of Immunology, Croatia. All mice used were females, from 2.0 to 2.5 months old. During the experimental period, the mice were housed in the Animal Facility of the Institute of Immunology, with food and water provided ad libitum.
Sex-matched NIH/OlaHsd mice (five per group) were immunized subcutaneously into the tail base with OVA (10 μg; Serva, Germany) alone or plus the compounds (50 μg) on days 0, 21, and 42. The injection volume in all of the experimental groups was 0.1 mL per mouse. On the seventh day after the second booster dose, the mice were anesthetized with i.p. application of ketamine/xylazine (25 mg/kg each) prior to blood collection from the axillary plexus. Individual sera from each animal were decomplemented at 56 °C for 35 min and then stored at −20 °C until tested.
The levels of the OVA-specific total IgG, IgG1, and IgG2a in mice sera were determined by ELISA. Briefly, high-binding ELISA plates (Costar) were coated with a 15 μg/mL solution of OVA (Serva, Germany) in carbonate buffer (pH 9.6). Nonspecific antibody binding was blocked by 0.5% w/v bovine serum albumin in PBS-T (0.05% [v/v] Tween 20 in PBS) for 2 h at 37 °C. After washing, five serial dilutions of mice sera and standard preparations were added in duplicates. Plates were incubated overnight at room temperature, washed, and analyzed for OVA-specific IgG levels by incubation with HRP-conjugated goat anti-mouse IgG (2 h at 37 °C; Bio-Rad Laboratories), and then after washing, with 0.6 mg/mL o-phenylenediaminedihydrochloride solution in citrate-phosphate buffer, pH 5.0, with 0.5 μL 30% H2O2/mL for 30 min at room temperature in the dark. The enzymatic reaction was stopped with 12.5% H2SO4, and absorbance at 492 nm was measured using a microplate reader (Thermo Fisher Scientific, Waltham, MA).
For the determination of OVA-specific IgG1 and IgG2a, the plates were incubated with biotin-conjugated rat anti-mouse IgG1 or IgG2a (2 h at 37 °C; PharMingen, Becton Dickinson) and subsequently with streptavidin-peroxidase (Pharmingen) for 2 h at 37 °C. After washing, the substrate solution was added and incubated for 30 min at room temperature in the dark, as described above. The enzymatic reaction was stopped with 12.5% H2SO4 and absorbance at 492 nm was measured using a microplate reader. The relative quantities of antibodies were determined by parallel line assays using appropriate standard preparations of anti-OVA IgG, anti-OVA IgG1, and anti-OVA IgG2a antibodies with voluntarily assigned 20.000 AU/mL, 400.000 AU/mL, and 5000 AU/mL, respectively.[65] Statistical significance was determined with one-way ANOVA with subsequent Dunnett’s multiple comparisons test.

[5] = test system: human PBMCs; assay: Cytokine release from peripheral blood mononuclear cells; type: cell-based; conditions: 1 μM, 18 h
Procedure: Human PBMCs from healthy and consenting donors were isolated from heparinized blood by density gradient centrifugation using Ficoll-Paque (Pharmacia, Sweden).
Peripheral blood mononuclear cells were seeded (1 × 10^6 cells/mL) in 24-well plates in 500 μL of growth medium and treated with the compounds (1 μM), lipopolysaccharide (LPS; 1 μg/mL), or the corresponding vehicle (0.1% DMSO). Cell-free supernatants were collected after 18 h of incubation (37 °C, 5% CO2) and stored at −80 °C until tested. Cytokine production was determined with BD Cytometric Bead Array human inflammatory cytokines kit (BD Bioscience) on an Attune NxT flow cytometer (Thermo Fisher Scientific, Waltham, MA). Standard curves were generated using recombinant cytokines contained in the kit. The data were analyzed using the FlowJo (Tree Star, Inc., Ashland, OR) and Prism (GraphPad, San Diego, CA) software. Statistical significance was determined with one-way ANOVA with subsequent Bonferroni’s multiple comparisons test.

[6] = Kinetic solubility measurement; type: physicochemical; conditions: for solubility at 2 h: phosphate-buffered saline, aqueous buffer, kinetic from dmso stock, kinetic, PBS pH 7.4, 2% DMSO, 2 h room temperature
Procedure: The content of DMSO in all solutions was fixed to 2% by adding the respective amounts of DMSO. The column used was Waters Acquity UPLC BEH C18 (1.7 μm, 2.1 × 50 mm^2). […] The column was thermostated at 40 °C.

[7] = test system: K562 cells; assay: PBMC cytotoxicity against K562 cancer cells; type: cell-based; conditions: for cytolytic activity of PBMCs against K562 cells: PBMCs stimulated 18 h, 1 μM, 4 h coincubation, effector:target 40:1
Procedure: as §1, §2

[8] = test system: human PBMCs; type: cell-based
[9] = test system: RAW-Blue cells; assay: NF-κB transcriptional activity in RAW-Blue cells with or without NOD2/TLR7 antagonists; type: cell-based, murine; conditions: 1 μM, 18 h; SG84 (5 μM), M5049 (1 μM)
Procedure: After the first two passages, 200 μg/mL Zeocin (Invivogen) was added to the medium every other passage, to maintain the selection pressure.
RAW-Blue cells were seeded (100,000 cells/well) in duplicate in 96-well plates in 200 μL of growth medium (without Normocin and Zeocin) and pretreated with a NOD2 antagonist SG84 (5 μM),[35] TLR7 antagonist M5049 (1 μM),[36] or both for 1 h, before the addition of compounds (1 μM) or the corresponding vehicle (0.1% DMSO). After 18 h of incubation (37 °C, 5% CO2), 10 μL of the induced supernatant was added to 90 μL of QUANTI-Blue solution (Invivogen). After 2 h of incubation (37 °C), SEAP activity was determined spectrophotometrically as absorbance at 630 nm (BioTek Synergy microplate reader; Winooski, VT). Statistical significance was determined with two-way ANOVA with subsequent Dunnett’s multiple comparisons test.

[10] = tested 1 nM-1 μM, cancer cell line not specified (K562 or MEC1, Figure S5)

T2 sequence (Q9HC29 whole entry): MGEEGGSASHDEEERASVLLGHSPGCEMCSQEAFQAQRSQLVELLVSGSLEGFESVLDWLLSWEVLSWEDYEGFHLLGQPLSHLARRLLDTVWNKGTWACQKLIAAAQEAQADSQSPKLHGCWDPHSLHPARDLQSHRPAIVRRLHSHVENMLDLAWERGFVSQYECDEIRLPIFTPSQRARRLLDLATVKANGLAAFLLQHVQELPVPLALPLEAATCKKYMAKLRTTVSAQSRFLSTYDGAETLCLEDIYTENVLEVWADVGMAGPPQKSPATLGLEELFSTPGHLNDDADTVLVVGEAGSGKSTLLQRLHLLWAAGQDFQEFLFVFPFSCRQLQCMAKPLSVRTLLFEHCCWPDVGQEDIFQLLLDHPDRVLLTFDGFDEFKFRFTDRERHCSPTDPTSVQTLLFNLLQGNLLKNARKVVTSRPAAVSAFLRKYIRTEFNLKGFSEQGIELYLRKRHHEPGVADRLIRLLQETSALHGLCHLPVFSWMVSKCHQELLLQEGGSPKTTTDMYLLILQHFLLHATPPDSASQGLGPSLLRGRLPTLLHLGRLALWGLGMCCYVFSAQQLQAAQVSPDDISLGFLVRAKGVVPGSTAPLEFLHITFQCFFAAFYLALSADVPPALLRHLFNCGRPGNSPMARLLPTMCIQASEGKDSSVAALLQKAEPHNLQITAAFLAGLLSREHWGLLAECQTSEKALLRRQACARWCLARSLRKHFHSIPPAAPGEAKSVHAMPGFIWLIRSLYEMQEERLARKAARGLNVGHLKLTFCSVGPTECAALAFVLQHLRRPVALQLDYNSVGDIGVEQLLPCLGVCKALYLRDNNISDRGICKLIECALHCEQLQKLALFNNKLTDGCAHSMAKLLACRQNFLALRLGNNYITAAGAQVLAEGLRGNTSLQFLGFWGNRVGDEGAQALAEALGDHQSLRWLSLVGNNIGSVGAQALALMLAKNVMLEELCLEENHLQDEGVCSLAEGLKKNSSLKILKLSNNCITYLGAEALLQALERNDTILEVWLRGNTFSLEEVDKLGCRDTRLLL

## CCCCOc1nc(N)c2nc(O)n(Cc3ccc(C(=O)NCCOCCNC(=O)CC[C@@H](NC(=O)[C@@H](NC(=O)CNC(=O)/C=C/c4ccc(O)c(OC)c4)C(C)C)C(=O)OCC)cc3)c2n1 [Compound 4, Ethyl N5-(2-(2-(4-((6-amino-2-butoxy-8-hydroxy-9H-purin-9-yl)methyl)benzamido)ethoxy)ethyl)-N2-((E)-3-(4-hydroxy-3-methoxyphenyl)acryloyl)glycyl-L-valyl-D-glutaminate]
[1]
  cytolytic activity of PBMCs against MEC1 cells: significantly enhanced
[2]
  EC50: 36 nM
  fold improved TLR7 activity over 1: 10 fold
[3]; 10 μM
  NOD2 activation at the highest concentration tested: activated NOD2 only to a minor extent
[3]
  EC50: > 10000 nM
[4]
  IgG2a/IgG1 ratio (Th1/Th2 polarization): trend toward increased IgG2a/IgG1 ratios
  OVA-specific IgG1 titers: increased the titers
  OVA-specific IgG2a titers: increased the titers
  serum OVA-specific IgG titers: significantly higher
[5]
  IL12p70 secretion: induced secretion of IL12p70
  production of IL-1β, IL-6, IL-8, IL-10 and TNF: considerably stronger effects compared to 3
[6]; kinetic solubility, Table S2
  fold higher solubility of 4 than 3: approximately 2 fold
[6]
  solubility at 2 h: 58.2 µM (≈ 54.3 µg/mL)
[7]
  cytolytic activity of PBMCs against K562 cells: significantly enhanced
[7]; [10]
  lowest concentration with significant effect on PBMC cytotoxicity: 10 nM
[8]; Chemokine signaling pathway (total 182)
  Genes in KEGG pathway, 4-enriched: 40
[8]; Hematopoietic cell lineage (total 97)
  Genes in KEGG pathway, 4-enriched: 31
[8]; Influenza A (total 182)
  Genes in KEGG pathway, 4-enriched: 33
[8]; NF-kappa B signaling pathway (total 107)
  Genes in KEGG pathway, 4-enriched: 25
[8]; PBMCs, 1 μM, 18 h
  transcription of IFN-γ and both IL-12 subunits (IL12A, IL12B): strongly upregulated
  transcription of IL-17A, IL-17F, IL-22 and IL-26: induced transcription
  transcription of Th2-associated genes (IL-4, IL-5, IL-13, STAT6, GATA3): remained unchanged
[8]; PBMCs, three donors, 1 μM, 18 h, FDR <0.05, fold-change <0.5
  number of significantly downregulated genes: 877
[8]; PBMCs, three donors, 1 μM, 18 h, […]
  number of significantly upregulated genes: 962
[8]; Pathways in cancer (total 395)
  Genes in KEGG pathway, 4-enriched: 56
[8]; Phagosome (total 168)
  Genes in KEGG pathway, 4-enriched: 33
[8]; Rheumatoid arthritis (total 99)
  Genes in KEGG pathway, 4-enriched: 25
[8]; TNF signaling pathway (total 115)
  Genes in KEGG pathway, 4-enriched: 28
[8]; Transcriptional misregulation in cancer (total 204)
  Genes in KEGG pathway, 4-enriched: 37

## CCCCOc1nc(N)c2nc(O)n(Cc3ccc(C(=O)NCCCCCC(=O)Oc4ccc(/C=C/C(=O)NCC(=O)N[C@H](C(=O)N[C@H](CCC(=O)OCC)C(=O)OCC)C(C)C)cc4OC)cc3)c2n1 [Compound 3, Diethyl ((E)-3-(4-((6-(4-((6-amino-2-butoxy-8-hydroxy-9H-purin-9-yl)methyl)benzamido)hexanoyl)-oxy)-3-methoxyphenyl)acryloyl)glycyl-L-valyl-D-glutamate]
[1]
  cytolytic activity of PBMCs against MEC1 cells: significantly enhanced
[2]
  EC50: 161 nM
  fold improved TLR7 activity over 1: approximately 2 fold
[3]
  EC50: 114 nM
[6]
  solubility at 2 h: 27.4 µM (≈ 27.1 µg/mL)
[7]
  cytolytic activity of PBMCs against K562 cells: significantly enhanced
[7]; [10]
  concentration at which significant PBMC cytotoxicity was observed: 1000 nM
[9]
  RAW-Blue activity in the presence of NOD2 or TLR7 antagonist: decrease in activity after antagonizing TLR7 was more prominent

## CCOC(=O)CC[C@@H](NC(=O)[C@@H](NC(=O)CNC(=O)/C=C/c1ccc(O)c(OC)c1)C(C)C)C(=O)OCC [Compound 2, Diethyl ((E)-3-(4-hydroxy-3-methoxyphenyl)acryloyl)glycyl-L-valyl-D-glutamate]
[5]
  IL-8 production: significant increase

## CCCCOc1nc(N)c2nc(O)n(Cc3ccc(C(=O)O)cc3)c2n1 [Compound 1, 4-((6-Amino-2-butoxy-8-hydroxy-9H-purin-9-yl)methyl)benzoic acid, reference compound]
[2]
  EC50: 398 nM
